Source: publication PMC8165160, “Substrate Specificities and Inhibition Pattern of the Solute Carrier Family 10 Members NTCP, ASBT and SOAT” (Frontiers in Molecular Biosciences, 2021)
Where two headings read alike, the source gives them in different places.

Legend:
ASBT = target: T1, ASBT (Homo sapiens, UniProt Q12908); assay: Substrate screening: sodium-dependent uptake of radiolabeled compounds in ASBT-HEK293 cells; type: cell-based; settings: radiolabeled bile acids 1 µM, 30 min, ASBT-HEK293, vs sodium-free control
T1 construct: The full-length open reading frames of NTCP, ASBT, and SOAT were cloned; expressed in transfected cells; host or cells: Flp-In T-REX HEK293 (ASBT-HEK293), tetracycline-induced
T1 sequence (Q12908 1-348): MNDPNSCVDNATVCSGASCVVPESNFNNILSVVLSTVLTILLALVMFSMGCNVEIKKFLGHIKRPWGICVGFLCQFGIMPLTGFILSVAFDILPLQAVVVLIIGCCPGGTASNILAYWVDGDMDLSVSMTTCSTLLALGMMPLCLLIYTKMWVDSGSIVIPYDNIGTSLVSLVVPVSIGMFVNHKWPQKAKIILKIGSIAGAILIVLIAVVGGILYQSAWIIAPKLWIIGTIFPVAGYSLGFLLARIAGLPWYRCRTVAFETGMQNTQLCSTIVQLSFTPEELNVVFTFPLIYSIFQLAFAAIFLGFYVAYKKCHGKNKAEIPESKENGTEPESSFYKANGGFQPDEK
Method: (§1) Stably SLC10 transporter transfected NTCP-HEK293, ASBT-HEK293, SOAT-HEK293 cells and the HEK293-FlpIn maternal cell line were seeded on 24-well plates (if not stated otherwise for individual assays). Well plates were coated with poly-D-lysine prior to seeding of 125,000 cells per well. Cells were grown with 1 ml of standard medium per well with or without tetracycline ([…]) for 72 h to induce carrier expression before respective assays were started. HEK293-FlpIn cells were cultivated with standard medium and served as control.
(§2) Uptake experiments were initiated by replacing the preincubation buffer by 500 μL transport buffer containing the radiolabeled test compound and were performed at 37°C. Transport was terminated by removing the transport buffer and washing five-times with ice-cold PBS. Cell monolayers were lysed in 1 N NaOH with 0.1% SDS and the cell-associated radioactivity was determined by liquid scintillation counting.
(§3) FIGURE 1 Comparative substrate screening for bile acids and sulfated steroids in NTCP-, ASBT-, and SOAT-HEK293 cells. Transport assays were performed with the indicated substrates in NTCP-HEK293, ABST-HEK293, SOAT-HEK293, and HEK293-FlpIn cells. Cells were washed and equilibrated with Na^+-containing transport buffer (filled bars) or with Na^+-free transport buffer (open bars) at 37°C. For uptake, cells were incubated with radiolabeled steroid compounds at a final concentration of 200 nM in Na^+-containing or Na^+-free transport buffer for 10 min. Radiolabeled bile acids were used at 1 µM concentrations and transport was analyzed over 30 min. HEK293-FlpIn cells served as additional controls. After the indicated time intervals, cells were washed with ice-cold PBS, lysed and subjected to liquid scintillation counting. […] 3-OH, trihydroxylated BAs; 2-OH, dihydroxylated BAs; 1-OH, monohydroxylated BAs.

NTCP [1] = target: T2, NTCP (Homo sapiens, UniProt Q14973); assay: Substrate screening: sodium-dependent uptake of radiolabeled compounds in NTCP-HEK293 cells; type: cell-based; set-up: The full-length open reading frames of NTCP, ASBT, and SOAT were cloned; expressed in transfected cells; host or cells: Flp-In T-REX HEK293 (NTCP-HEK293), tetracycline-induced; settings: NTCP-HEK293, vs sodium-free control
T2 sequence (Q14973 1-349): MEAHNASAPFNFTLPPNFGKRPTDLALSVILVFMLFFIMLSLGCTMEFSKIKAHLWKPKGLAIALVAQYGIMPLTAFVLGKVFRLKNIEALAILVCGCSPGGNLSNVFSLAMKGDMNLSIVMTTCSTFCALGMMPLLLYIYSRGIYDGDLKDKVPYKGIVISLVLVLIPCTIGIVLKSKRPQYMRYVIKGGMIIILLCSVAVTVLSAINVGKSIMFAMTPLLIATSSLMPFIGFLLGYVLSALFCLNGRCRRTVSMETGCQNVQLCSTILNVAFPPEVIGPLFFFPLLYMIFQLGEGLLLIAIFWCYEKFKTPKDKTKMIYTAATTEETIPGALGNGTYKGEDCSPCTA
Method: as §1, §2, §3

NTCP [2] = target: T2, NTCP; assay: Transport inhibition in NTCP-HEK293 cells; settings: NTCP-HEK293
[3] = radiolabeled bile acids 1 µM, 30 min

With `C[C@H](CCC(=O)NCC(=O)O)[C@H]1CC[C@H]2[C@@H]3[C@H](O)C[C@@H]4C[C@H](O)CC[C@]4(C)[C@H]3C[C@H](O)[C@]12C` [Glycocholic acid] the “Transport activity grading ASBT (mean uptake)” value (“Transport activity grading ASBT” for short) (ASBT) was “++ (“++” for values between 500 and 1000)” and the “Transport activity grading NTCP (mean uptake)” value (shortened to “Transport activity grading NTCP”) (NTCP [1]; [3]) was “+++ (“+++” for values above 1000 pmol/mg protein/30 min)”.
Molecule “myr-preS1: 2–48 N-terminal amino acids of the myristoylated preS1 domain of the HBV/HDV large envelope protein (GQNLSTSNPLGFFPDHQLDPAFRANTANPDWDFNPNKDTWPDANKVG; N-terminal myristoyl on Gly2)” has an IC50 (NTCP [2]; read-out: IC50 for inhibition of [3H]DHEAS transport via NTCP, 200 nM DHEAS) of 0.167 µM, an IC50 (NTCP [2]; read-out: IC50 for inhibition of [3H]TC transport via NTCP, 200 nM TC) of 0.182 µM and an IC50 (NTCP [2]; read-out: IC50 for inhibition of [3H]TLC transport via NTCP, 200 nM TLC) of 0.316 µM.
For `C[C@H](CCC(=O)O)[C@H]1CC[C@H]2[C@@H]3[C@@H](O)C[C@@H]4C[C@H](O)CC[C@]4(C)[C@H]3CC[C@]12C` [Ursodeoxycholic acid], the “Transport activity grading NTCP” value (NTCP [1]; [3]) was “+ (Mean uptake of bile acids “+” for values below 500)”.
`CC(CCC(=O)NCC(=O)O)C1CCC2C3CCC4CC(O)CCC4(C)C3CC(O)C12C` (stereo not shown) [Glycodeoxycholic acid] was tested, and the “Transport activity grading ASBT” value (ASBT) was “++ (“++” for values between 500 and 1000)” and the “Transport activity grading NTCP” value (NTCP [1]; [3]) was “+++ (“+++” for values above 1000 pmol/mg protein/30 min)”.
For `C[C@H](CCC(=O)NCCS(=O)(=O)O)[C@H]1CC[C@H]2[C@@H]3CC[C@@H]4C[C@H](O)CC[C@]4(C)[C@H]3C[C@H](O)[C@]12C` [Taurodeoxycholic acid], the “Transport activity grading ASBT” value (ASBT) was “++ (“++” for values between 500 and 1000)” and the “Transport activity grading NTCP” value (NTCP [1]; [3]) was “+++ (“+++” for values above 1000 pmol/mg protein/30 min)”.
For `C[C@]12CC[C@@H]3c4ccc(O[C@@H]5O[C@H](C(=O)O)[C@@H](O)[C@H](O)[C@H]5O)cc4CC[C@H]3[C@@H]1CCC2=O` [Estrone-3β-D-glucuronide], the “Transport activity grading NTCP” value (NTCP [1]; radiolabeled steroid compounds 200 nM, 10 min) was “+ (Mean uptake “+” for values below 10)”.
`C[C@H](CCC(=O)O)[C@H]1CC[C@H]2[C@@H]3CC[C@@H]4C[C@H](O)CC[C@]4(C)[C@H]3C[C@H](O)[C@]12C` [Deoxycholic acid] was tested, and the “Transport activity grading ASBT” value (ASBT) was “+ (Mean uptake of bile acids “+” for values below 500)” and the “Transport activity grading NTCP” value (NTCP [1]; [3]) was “+ (Mean uptake of bile acids “+” for values below 500)”.
With `C[C@H](CCC(=O)O)[C@H]1CC[C@H]2[C@@H]3[C@H](O)C[C@@H]4C[C@H](O)CC[C@]4(C)[C@H]3C[C@H](O)[C@]12C` [Cholic acid] the “Transport activity grading ASBT” value (ASBT) was “+ (Mean uptake of bile acids “+” for values below 500)” and the “Transport activity grading NTCP” value (NTCP [1]; [3]) was “++ (“++” for values between 500 and 1000)”.
With `C[C@H](CCC(=O)O)[C@H]1CC[C@H]2[C@@H]3[C@H](O)C[C@@H]4C[C@H](O)CC[C@]4(C)[C@H]3CC[C@]12C` [Chenodeoxycholic acid] the “Transport activity grading ASBT” value (ASBT) was “+ (Mean uptake of bile acids “+” for values below 500)” and the “Transport activity grading NTCP” value (NTCP [1]; [3]) was “+ (Mean uptake of bile acids “+” for values below 500)”.
`CC(CCC(=O)NCC(=O)O)C1CCC2C3C(O)CC4CC(O)CCC4(C)C3CCC12C` (stereo not shown) [Glycochenodeoxycholic acid] was tested, and the “Transport activity grading ASBT” value (ASBT) was “++ (“++” for values between 500 and 1000)” and the “Transport activity grading NTCP” value (NTCP [1]; [3]) was “+++ (“+++” for values above 1000 pmol/mg protein/30 min)”.
For `C[C@H](CCC(=O)NCCS(=O)(=O)O)[C@H]1CC[C@H]2[C@@H]3[C@@H](O)C[C@@H]4C[C@H](O)CC[C@]4(C)[C@H]3CC[C@]12C` [Tauroursodeoxycholic acid], the “Transport activity grading ASBT” value (ASBT) was “++ (“++” for values between 500 and 1000)” and the “Transport activity grading NTCP” value (NTCP [1]; [3]) was “+++ (“+++” for values above 1000 pmol/mg protein/30 min)”.
`C[C@H](CCC(=O)NCC(=O)O)[C@H]1CC[C@H]2[C@@H]3[C@@H](O)C[C@@H]4C[C@H](O)CC[C@]4(C)[C@H]3CC[C@]12C` [Glycoursodeoxycholic acid] was tested, and the “Transport activity grading ASBT” value (ASBT) was “++ (“++” for values between 500 and 1000)” and the “Transport activity grading NTCP” value (NTCP [1]; [3]) was “+++ (“+++” for values above 1000 pmol/mg protein/30 min)”.
With `C[C@H](CCC(=O)NCCS(=O)(=O)O)[C@H]1CC[C@H]2[C@@H]3[C@H](O)C[C@@H]4C[C@H](O)CC[C@]4(C)[C@H]3CC[C@]12C` [Taurochenodeoxycholic acid] the “Transport activity grading ASBT” value (ASBT) was “++ (“++” for values between 500 and 1000)” and the “Transport activity grading NTCP” value (NTCP [1]; [3]) was “+++ (“+++” for values above 1000 pmol/mg protein/30 min)”.
